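Exposure lasted 48 hours, with cells grown in 96-well plates and compounds tested at five concentrations. Here, GI50 denotes the concentration required for 50% inhibition of growth.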 Calls of active or inactive are those of the source. Rule as the data show it: active = GI50 up to about 1.1 µM and inactive = higher.
Assays:
Test in all cases: inhibition of tumour cell growth, NCI panel, 48 h
SNB-19 = system: SNB-19
OVCAR-8 = system: OVCAR-8
MDA-N = system: MDA-N
UACC-62 = system: UACC-62
ACHN = system: ACHN
BT-549 = system: BT-549
DU-145 = system: DU-145
HCT-15 = system: HCT-15
A549 = system: A549
SK-OV-3 = system: SK-OV-3
LOX IMVI = system: LOX IMVI
OVCAR-5 = system: OVCAR-5
HOP-92 = system: HOP-92
HCT-116 = system: HCT-116
786-0 = system: 786-0
SK-MEL-5 = system: SK-MEL-5
PC-3 = system: PC-3
CCRF-CEM = system: CCRF-CEM
NCI-H23 = system: NCI-H23
T47D = system: T47D
SK-MEL-28 = system: SK-MEL-28
SN12C = system: SN12C
HT-29 = system: HT-29
M14 = system: M14
A498 = system: A498
HCC 2998 = system: HCC 2998
MDA-MB-231 = system: MDA-MB-231
U-251 = system: U-251
HL-60 = system: HL-60
UACC-257 = system: UACC-257
CAKI-1 = system: CAKI-1
RPMI-8226 = system: RPMI-8226
KM12 = system: KM12
NCI/ADR-RES = system: NCI/ADR-RES
MDA-MB-435 = system: MDA-MB-435
K562 = system: K562
SR = system: SR
SNB-75 = system: SNB-75
SF-539 = system: SF-539
NCI-H226 = system: NCI-H226
MCF7 = system: MCF7
HOP-62 = system: HOP-62
SF-295 = system: SF-295
SW-620 = system: SW-620
SF-268 = system: SF-268
OVCAR-3 = system: OVCAR-3
RXF 393 = system: RXF 393
TK-10 = system: TK-10
COLO 205 = system: COLO 205
SK-MEL-2 = system: SK-MEL-2
Hs-578T = system: Hs-578T
MOLT-4 = system: MOLT-4
IGROV-1 = system: IGROV-1
OVCAR-4 = system: OVCAR-4
NCI-H522 = system: NCI-H522
NCI-H460 = system: NCI-H460
Malme-3M = system: Malme-3M
UO-31 = system: UO-31
EKVX = system: EKVX

For `COc1ccc(NC(=S)C#N)cc1`, the GI50 (SNB-19) was > 100 µM (inactive), the GI50 (OVCAR-8) was > 100 µM (inactive) and the GI50 (MDA-N) was > 100 µM (inactive). For the same compound, the GI50 (UACC-62) was > 100 µM (inactive), the GI50 (ACHN) was > 100 µM (inactive) and the GI50 (BT-549) was > 100 µM (inactive). The GI50 (DU-145) was > 100 µM (inactive), the GI50 (HCT-15) was over 100 µM and the GI50 (A549) was > 100 µM (inactive). The GI50 (SK-OV-3) was > 100 µM (inactive), the GI50 (LOX IMVI) was > 100 µM (inactive) and the GI50 (OVCAR-5) was > 100 µM (inactive). The GI50 (HOP-92) was 97.3 µM (inactive), the GI50 (HCT-116) was > 100 µM (inactive) and the GI50 (786-0) was > 100 µM (inactive). For the same compound, the GI50 (SK-MEL-5) was > 100 µM (inactive), the GI50 (PC-3) was > 100 µM (inactive) and the GI50 (CCRF-CEM) was 54.1 µM (inactive). The GI50 (NCI-H23) was > 100 µM (inactive), the GI50 (T47D) was 85.7 µM (inactive) and the GI50 (SK-MEL-28) was > 100 µM (inactive). The GI50 (SN12C) was > 100 µM (inactive), the GI50 (HT-29) was > 100 µM (inactive) and the GI50 (M14) was > 100 µM (inactive). The GI50 (A498) was 51.9 µM (inactive), the GI50 (HCC 2998) was > 100 µM (inactive) and the GI50 (MDA-MB-231) was > 100 µM (inactive). For the same compound, the GI50 (U-251) was > 100 µM (inactive), the GI50 (HL-60) was 53 µM (inactive) and the GI50 (UACC-257) was > 100 µM (inactive). For the same compound, the GI50 (CAKI-1) was > 100 µM (inactive), the GI50 (RPMI-8226) was 38.7 µM (inactive) and the GI50 (KM12) was > 100 µM (inactive). The GI50 (NCI/ADR-RES) was > 100 µM (inactive), the GI50 (MDA-MB-435) was > 100 µM (inactive) and the GI50 (K562) was 49.3 µM (inactive). The GI50 (SR) was > 100 µM (inactive), the GI50 (SNB-75) was > 100 µM (inactive) and the GI50 (SF-539) was > 100 µM (inactive). For the same compound, the GI50 (NCI-H226) was > 100 µM (inactive), the GI50 (MCF7) was > 100 µM (inactive) and the GI50 (HOP-62) was > 100 µM (inactive). For the same compound, the GI50 (SF-295) was > 100 µM (inactive), the GI50 (SW-620) was > 100 µM (inactive) and the GI50 (SF-268) was > 100 µM (inactive). The GI50 (OVCAR-3) was > 100 µM (inactive), the GI50 (RXF 393) was > 100 µM (inactive) and the GI50 (TK-10) was > 100 µM (inactive). For the same compound, the GI50 (COLO 205) was > 100 µM (inactive) and the GI50 (SK-MEL-2) was > 100 µM (inactive).
For `COC(=O)C(NC(=O)CNC(=O)CSc1nnc(COc2ccc(Cl)cc2)n1-c1ccccc1)C(C)C` (stereo unspecified), the GI50 (SNB-19) was 20.3 µM (inactive), the GI50 (OVCAR-8) was 20.1 µM (inactive) and the GI50 (MDA-N) was 21.6 µM (inactive). The GI50 (UACC-62) was 16.6 µM (inactive), the GI50 (Hs-578T) was 22.9 µM (inactive) and the GI50 (ACHN) was 18 µM (inactive). The GI50 (BT-549) was 18.5 µM (inactive), the GI50 (DU-145) was 18.8 µM (inactive) and the GI50 (HCT-15) was 21.2 µM. The GI50 (A549) was 31.3 µM (inactive), the GI50 (LOX IMVI) was 19.6 µM (inactive) and the GI50 (MOLT-4) was 22.3 µM (inactive). The GI50 (IGROV-1) was 18.8 µM (inactive), the GI50 (OVCAR-5) was 18.2 µM (inactive) and the GI50 (HOP-92) was 20.8 µM (inactive). For the same compound, the GI50 (OVCAR-4) was 22.1 µM (inactive), the GI50 (NCI-H522) was 3.75 µM (inactive) and the GI50 (HCT-116) was 16.2 µM (inactive). For the same compound, the GI50 (786-0) was 18.4 µM (inactive), the GI50 (SK-MEL-5) was 16.2 µM (inactive) and the GI50 (PC-3) was 17.9 µM (inactive). The GI50 (CCRF-CEM) was 21.7 µM (inactive), the GI50 (NCI-H23) was 20 µM (inactive) and the GI50 (SK-MEL-28) was 16.7 µM (inactive). For the same compound, the GI50 (SN12C) was 18.4 µM (inactive), the GI50 (HT-29) was 17.7 µM (inactive) and the GI50 (M14) was 18.7 µM (inactive). For the same compound, the GI50 (A498) was 21.6 µM (inactive), the GI50 (NCI-H460) was 18.8 µM (inactive) and the GI50 (HCC 2998) was 18.5 µM (inactive). For the same compound, the GI50 (MDA-MB-231) was 18.5 µM (inactive), the GI50 (U-251) was 18.3 µM (inactive) and the GI50 (UACC-257) was 18 µM (inactive). For the same compound, the GI50 (CAKI-1) was 14.7 µM (inactive), the GI50 (RPMI-8226) was 20.4 µM (inactive) and the GI50 (KM12) was 18.5 µM (inactive). The GI50 (NCI/ADR-RES) was > 100 µM (inactive), the GI50 (MDA-MB-435) was 21.2 µM (inactive) and the GI50 (K562) was 33.3 µM (inactive). For the same compound, the GI50 (Malme-3M) was 18.4 µM (inactive), the GI50 (SR) was 11.1 µM (inactive) and the GI50 (SNB-75) was 21.3 µM (inactive). For the same compound, the GI50 (SF-539) was 17.1 µM (inactive), the GI50 (NCI-H226) was 19.1 µM (inactive) and the GI50 (MCF7) was 16.1 µM (inactive). For the same compound, the GI50 (HOP-62) was 26.5 µM (inactive), the GI50 (UO-31) was 17.8 µM (inactive) and the GI50 (SF-295) was 19.5 µM (inactive). The GI50 (SW-620) was 20.2 µM (inactive), the GI50 (SF-268) was 21.3 µM (inactive) and the GI50 (OVCAR-3) was 17.3 µM (inactive). For the same compound, the GI50 (RXF 393) was 18.1 µM (inactive), the GI50 (TK-10) was 16.9 µM (inactive) and the GI50 (EKVX) was 35.9 µM (inactive). For the same compound, the GI50 (COLO 205) was 19.5 µM (inactive) and the GI50 (SK-MEL-2) was 20.8 µM (inactive).

Reference: ChEMBL document CHEMBL1201862, “PubChem BioAssay data set” (2004)
